# Source: paper PMC8962514 (ACS infectious diseases, 2022)
# Non-standard residues stand in square brackets, D forms with d. Residues, ends and D or L forms follow the SMILES beside them. Nspe = C[C@H](NCC(=O)O)c1ccccc1; NDecylGly = CCCCCCCCCCNCC(=O)O; Nlys = NCCCCNCC(=O)O
# Experiments:
# [1] = tested on: P. aeruginosa LESB58; format: cell-based, Pseudomonas aeruginosa; settings: LESB58, 16 h
# [2] = tested on: K. pneumoniae KPLN649; format: cell-based, Klebsiella pneumoniae; settings: KPLN649, 16 h
# [3] = tested on: S. aureus biofilm; assay: Minimal biofilm inhibition; format: cell-based, Staphylococcus aureus; settings: 1.56 μg/mL peptoid, relative to PBS, n = 3
# [4] = tested on: P. aeruginosa biofilm; assay: Minimal biofilm inhibition; format: cell-based, Pseudomonas aeruginosa; settings: 1.56 μg/mL peptoid, relative to PBS, n = 3
# [5] = In vivo toxicity / maximum tolerated dose; settings: mice, Table S3
# [6] = tested on: K. pneumoniae biofilm; assay: Minimal biofilm inhibition; format: cell-based, Klebsiella pneumoniae; settings: 1.56 μg/mL peptoid, relative to PBS, n = 3
# [7] = tested on: A. baumannii pre-formed biofilm; assay: Minimal biofilm eradication; format: cell-based, Acinetobacter baumannii; settings: 6.25 μg/ml peptoid, relative to PBS, n = 3
# [8] = tested on: S. aureus pre-formed biofilm; assay: Minimal biofilm eradication; format: cell-based, Staphylococcus aureus; settings: 12.5 μg/ml peptoid (Figure 4 legend; 6.25 μg/mL), relative to PBS, n = 3
# [9] = tested on: S. aureus USA300 LAC; assay: Subcutaneous abscess infection model; format: in vivo, mice; settings: 1.25 mg/kg for TM8, vs PBS
# [10] = tested on: E. cloacae biofilm; assay: Minimal biofilm inhibition; format: cell-based, Enterobacter cloacae; settings: 1.56 μg/mL peptoid, relative to PBS, n = 3
# [11] = tested on: K. pneumoniae pre-formed biofilm; assay: Minimal biofilm eradication; format: cell-based, Klebsiella pneumoniae; settings: 12.5 μg/ml peptoid (Figure 4 legend; 6.25 μg/mL), relative to PBS, n = 3
# [12] = tested on: E. cloacae 218R1; format: cell-based, Enterobacter cloacae; settings: 218R1, 16 h
# [13] = tested on: E. faecium #2-1; format: cell-based, Enterococcus faecium; settings: #2-1, 16 h
# [14] = tested on: A. baumannii AB5075; format: cell-based, Acinetobacter baumannii; settings: AB5075, 16 h
# [15] = tested on: P. aeruginosa LESB58 biofilm; assay: Biofilm eradication under host-mimicking conditions, monomicrobial; format: cell-based, Pseudomonas aeruginosa; settings: 31.25 μg/mL peptoid, DMEM-FBS-G, n = 3
# [16] = Self-assembly in aqueous solution by small angle X-ray scattering; format: physicochemical
# [17] = tested on: S. aureus USA300 LAC; format: cell-based, Staphylococcus aureus; settings: USA300, 16 h
structure (smiles),measurement,setting,value
CCCCCCCCCCNCC(=O)N(CCCCN)CC(=O)N(CC(=O)N(CC(=O)N(CCCCN)CC(=O)N(CC(=O)N(CC(N)=O)[C@@H](C)c1ccccc1)[C@@H](C)c1ccccc1)[C@@H](C)c1ccccc1)[C@@H](C)c1ccccc1 [TM8] (H-[NDecylGly][Nlys][Nspe][Nspe][Nlys][Nspe][Nspe]-NH2),Minimum inhibitory concentration (MIC),[1],6.25 µg/mL
same,Minimum inhibitory concentration (MIC),[2],12.5 µg/mL
same,Inhibition of biofilm formation (CV staining),[3],inhibited biofilm formation
same,Inhibition of biofilm formation (CV staining),[4],inhibited biofilm formation
same,Maximum tolerated dose,[5],1.25 mg/kg
same,Inhibition of biofilm formation (CV staining),[6],inhibited biofilm formation
same,Reduction of biofilm metabolic activity (TTC reduction),[7],metabolic activity was reduced
same,Reduction of biomass of pre-formed biofilm (CV staining),[8],impacted
same,"Effect on S. aureus abscess size and bacterial burden, in words",[9],insignificantly reduced
same,Inhibition of biofilm formation (CV staining),[10],inhibited biofilm formation
same,Reduction of biomass of pre-formed biofilm (CV staining),[11],impacted
same,Minimum inhibitory concentration (MIC),[12],12.5 µg/mL
same,Minimum inhibitory concentration (MIC),[13],0.78 µg/mL
same,Minimum inhibitory concentration (MIC),[14],3.13 µg/mL
same,Reduction of P. aeruginosa bacterial numbers in biofilm (CFU),[15],"1,000 fold"
same,Eccentricity (ε) of ellipsoidal micelles,[16]; SAXS model analysis,1.9
same,Rcore of ellipsoidal micelles,[16]; SAXS model analysis,10 Å
same,dR (shell) of ellipsoidal micelles,[16]; SAXS model analysis,9 Å
same,Aggregation number of ellipsoidal micellar assemblies,"[16]; SAXS, on average",~103 peptoids
same,Fraction of larger aggregates,"[16]; SAXS, upturn at low Q, 4mM, 20°C",~ 0.08%
same,Self-assembled structure (SAXS best fit),"[16]; aqueous solution, peptoids 4mM, 20°C, theoretical model analysis",ellipsoidal micellar assemblies
same,Minimum inhibitory concentration (MIC),[17],3.13 µg/mL
